Here are results for 1 compound from US7462741B2, “Naphthalene compounds” (Les Laboratoires Servier, priority 2006, dated 2008).

SMILES strings stand for the structures.

In one experiment the target is MT1 receptor (Homo sapiens, UniProt P48039). Briefly: Melatonin MT1 receptor binding study. The conditions noted are these: 2-[125I]-iodomelatonin radioligand, competitive binding in triplicate. How it is done:
(§1) The MT1 or MT2 receptor binding experiments are carried out using 2-[^125I]-iodomelatonin as reference radioligand. The radioactivity retained is determined using a liquid scintillation counter.
(§2) Competitive binding experiments are then carried out in triplicate using the various test compounds. A range of different concentrations is tested for each compound. The results enable the binding affinities of the compounds tested (Ki) to be determined.

The target of the next experiment is T1, MT2 receptor (Homo sapiens, UniProt P49286).
T1 sequence (P49286 1-362): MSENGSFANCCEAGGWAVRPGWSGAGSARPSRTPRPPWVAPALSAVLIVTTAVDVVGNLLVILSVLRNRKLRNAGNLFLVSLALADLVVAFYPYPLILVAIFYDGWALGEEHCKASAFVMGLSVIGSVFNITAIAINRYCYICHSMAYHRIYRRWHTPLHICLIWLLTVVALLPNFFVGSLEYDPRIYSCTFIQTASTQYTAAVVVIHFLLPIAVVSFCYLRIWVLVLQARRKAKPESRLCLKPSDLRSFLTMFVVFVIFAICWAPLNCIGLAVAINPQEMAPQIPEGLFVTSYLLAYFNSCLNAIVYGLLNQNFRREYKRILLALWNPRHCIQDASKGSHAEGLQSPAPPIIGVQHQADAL
Briefly: Melatonin MT2 receptor binding study. The conditions noted are these: 2-[125I]-iodomelatonin radioligand, competitive binding in triplicate. How it is done: as §1, §2

Chain of MT1 receptor (P48039 whole entry): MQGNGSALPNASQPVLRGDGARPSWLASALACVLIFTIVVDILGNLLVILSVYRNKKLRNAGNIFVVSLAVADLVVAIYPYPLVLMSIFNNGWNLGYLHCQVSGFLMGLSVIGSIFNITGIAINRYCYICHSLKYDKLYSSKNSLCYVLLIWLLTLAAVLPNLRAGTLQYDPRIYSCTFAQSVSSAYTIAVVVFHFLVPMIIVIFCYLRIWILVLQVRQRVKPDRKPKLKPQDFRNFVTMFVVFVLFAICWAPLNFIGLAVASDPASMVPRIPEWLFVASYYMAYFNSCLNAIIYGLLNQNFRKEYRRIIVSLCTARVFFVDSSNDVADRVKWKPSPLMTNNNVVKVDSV

In general, Ki refers to a dissociation constant, usually derived from enzyme kinetics or from competition with a known ligand. Lower therefore signals higher affinity. As for `CCC(=O)NCC(CO)c1cccc2ccc(OC)cc12` (centres unmarked) [Example 1, N-[3-Hydroxy-2-(7-methoxy-1-naphthyl)propyl]propanamide], the Ki came to 1.4 nM on MT1 receptor and 3.2 nM at MT2 receptor.
